Test results: BindingDB's records for doi:10.7270/Q2G73C4V (Nmmlsc, 2010)

Biological target: T1, Regulator of G-protein signaling 8 (Homo sapiens, UniProt P57771)
T1 sequence (P57771 whole entry): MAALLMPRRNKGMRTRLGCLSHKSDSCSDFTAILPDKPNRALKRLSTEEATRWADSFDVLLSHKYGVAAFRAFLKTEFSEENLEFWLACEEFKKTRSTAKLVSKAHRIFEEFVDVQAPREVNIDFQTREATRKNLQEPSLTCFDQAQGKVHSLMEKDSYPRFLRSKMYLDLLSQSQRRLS
Assay: small molecules altering RGS8 binding of Galphao – biochemical, multiplex bead flow cytometry, SAR compounds, SAR follow-up (AID 2307)

Row | Structure (SMILES) | Ki [nM]
1 | O=C(COc1ccccc1C(=O)NN=Cc1ccc(O)c(O)c1)NN=Cc1ccc(O)c(O)c1 [N''-[(Z)-(3-hydroxy-4-oxo-1-cyclohexa-2,5-dienylidene)methyl]-2-[2-[[(Z)-(3-hydroxy-4-oxo-1-cyclohexa-2,5-dienylidene)methyl]hydrazo]-2-oxoethoxy]benzohydrazide] | 100
2 | NS(=O)(=O)c1ccc(N=NCc2ccc(O)c(O)c2O)c([N+](=O)[O-])c1 [4-[[(E)-(2,3-dihydroxy-4-oxo-1-cyclohexa-2,5-dienylidene)methyl]hydrazo]-3-nitrobenzenesulfonamide] | 20
